Read-outs that look alike come from different tables or passages of the source.
Key:
[1] = tested on: rat; details: cited from earlier work
[2] = tested on: rat; details: cited from earlier work; remark: listed apart in the source
[3] = tested on: rat; details: rat model; cited from earlier work
[4] = target: T1, human orexin-2 receptor (Homo sapiens, UniProt O43614); experiment: FLIPR calcium assay of orexin receptor antagonistic activity, CHO cells expressing the human orexin-2 receptor; format: cell-based; details: 3 nM orexin-A as agonist
T1 construct: expressed in transfected cells; host or cells: Chinese hamster ovary (CHO) cells
T1 sequence (O43614 1-444): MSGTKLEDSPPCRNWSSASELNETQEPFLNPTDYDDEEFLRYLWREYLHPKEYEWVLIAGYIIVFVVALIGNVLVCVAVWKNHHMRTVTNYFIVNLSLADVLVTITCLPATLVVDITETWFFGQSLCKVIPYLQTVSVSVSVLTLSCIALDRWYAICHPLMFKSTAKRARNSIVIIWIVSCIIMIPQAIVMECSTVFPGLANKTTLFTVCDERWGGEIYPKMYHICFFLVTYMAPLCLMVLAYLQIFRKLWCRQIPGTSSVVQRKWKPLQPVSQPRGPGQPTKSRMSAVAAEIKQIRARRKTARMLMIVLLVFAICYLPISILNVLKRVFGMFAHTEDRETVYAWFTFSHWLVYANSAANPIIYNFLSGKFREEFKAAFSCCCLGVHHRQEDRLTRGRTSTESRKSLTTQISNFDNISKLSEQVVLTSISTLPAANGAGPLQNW
Description: (§1) The orexin receptor antagonistic activity of the compounds of formula (I) is determined in accordance with the following experimental method.
(§2) Chinese hamster ovary (CHO) cells expressing the human orexin-1 receptor and the human orexin-2 receptor, respectively, are grown in culture medium (Ham F-12 with L-Glutamine) containing 300 μg/ml G418, 100 U/ml penicillin, 100 μg/ml streptomycin and 10% heat inactivated fetal calf serum (FCS). The cells are seeded at 20′000 cells/well into 384-well black clear bottom sterile plates (Greiner). The seeded plates are incubated overnight at 37° C. in 5% CO2.
(§3) Human orexin-A as an agonist is prepared as 1 mM stock solution in MeOH:water (1:1), diluted in HBSS containing 0.1% bovine serum albumin (BSA), NaHCO3: 0.375 g/l and 20 mM HEPES for use in the assay at a final concentration of 3 nM.
(§4) Antagonists are prepared as 10 mM stock solution in DMSO, then diluted in 384-well plates using DMSO followed by a transfer of the dilutions into in HBSS containing 0.1% bovine serum albumin (BSA), NaHCO3: 0.375 g/l and 20 mM HEPES. On the day of the assay, 50 μl of staining buffer (HBSS containing 1% FCS, 20 mM HEPES, NaHCO3: 0.375 g/l, 5 mM probenecid (Sigma) and 3 μM of the fluorescent calcium indicator fluo-4 AM (1 mM stock solution in DMSO, containing 10% pluronic) is added to each well. The 384-well cell-plates are incubated for 50 min at 37° C. in 5% CO2 followed by equilibration at RT for 30-120 min before measurement.
(§5) Within the Fluorescent Imaging Plate Reader (FLIPR Tetra, Molecular Devices), antagonists are added to the plate in a volume of […], incubated for 10 min and finally […] of agonist is added. Fluorescence is measured for each well at 1 second intervals, and the height of each fluorescence peak is compared to the height of the fluorescence peak induced by 3 nM orexin-A with vehicle in place of antagonist. For each antagonist, the IC50 value (the concentration of compound needed to inhibit 50% of the agonistic response) is determined and may be normalized using the obtained IC50 value of a on-plate reference compound (normalized values in Table 1 indicated by an asterisk*).
(§6) The calculated IC50 values of the compounds may fluctuate depending on the daily cellular assay performance. Fluctuations of this kind are known to those skilled in the art.

[5] = target: T2, human orexin-1 receptor (Homo sapiens, UniProt O43613); experiment: FLIPR calcium assay of orexin receptor antagonistic activity, CHO cells expressing the human orexin-1 receptor; format: cell-based; details: 3 nM orexin-A as agonist
T2 construct: expressed in transfected cells; host or cells: Chinese hamster ovary (CHO) cells
T2 sequence (O43613 1-425): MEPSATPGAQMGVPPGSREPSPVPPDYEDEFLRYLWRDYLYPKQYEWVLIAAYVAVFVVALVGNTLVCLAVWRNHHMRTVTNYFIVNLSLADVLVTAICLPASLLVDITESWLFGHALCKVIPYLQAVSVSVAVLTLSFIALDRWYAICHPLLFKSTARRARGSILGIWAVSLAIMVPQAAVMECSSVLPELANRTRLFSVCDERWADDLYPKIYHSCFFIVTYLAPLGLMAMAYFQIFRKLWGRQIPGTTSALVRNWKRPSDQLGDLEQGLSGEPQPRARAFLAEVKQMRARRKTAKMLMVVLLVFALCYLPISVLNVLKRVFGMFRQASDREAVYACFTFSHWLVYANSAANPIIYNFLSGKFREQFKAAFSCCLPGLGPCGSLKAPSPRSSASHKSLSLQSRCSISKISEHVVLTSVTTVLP
Description: as §1, §2, §3, §4, §5, §6

[6] = value not normalized, read-out: OX2 IC50
[7] = value not normalized, read-out: OX1 IC50
[8] = normalized using IC50 of on-plate reference compound (asterisk), read-out: OX2 IC50 (in nM), normalized value
[9] = normalized using IC50 of on-plate reference compound (asterisk), read-out: OX1 IC50 (in nM), normalized value

SMILES	IC50 [4, 6]	IC50 [5, 7]	IC50 [4, 8]	IC50 [5, 9]	also measured
CNC(=O)[C@@H](c1ccccc1)N1CCc2cc(OC)c(OC)cc2[C@@H]1CCc1ccc(C(F)(F)F)cc1 [(2R)-2-{(1S)-6,7-dimethoxy-1-[2-(4-trifluoromethyl-phenyl)-ethyl]-3,4-dihydro-1H-isoquinolin-2-yl}-N-methyl-2-phenyl-acetamide]	–	–	–	–	alertness (active wake and locomotion) [1]: decrease alertness; time spent in both REM and NREM sleep [1]: dose-dependently increase the time spent in both REM and NREM sleep; activity in post-traumatic stress disorder model [2]: active; memory function [3]: enhance memory function
CCc1nc(Cl)c2n1CCN([C@@H](C(=O)NC)c1ccccc1)[C@H]2CCc1cccc(OC(F)F)c1 [Example 11, (R)-2′-{1-chloro-(S)-8-[2-(3-difluoromethoxy-phenyl)-ethyl]-3-ethyl-5,6-dihydro-8H-imidazo[1,5-a]pyrazin-7-yl}-N-methyl-2′-phenyl-acetamide]	2 nM	45 nM	–	–	–
CNC(=O)[C@@H](c1ccccc1)N1CCn2c(C(F)(F)F)nc(C)c2[C@@H]1CCc1ccc(C(F)(F)F)cc1 [Example 13a, N-methyl-(R)-2′-{1-methyl-3-trifluoromethyl-(S)-8-[2-(4-trifluoromethyl-phenyl)-ethyl]-5,6-dihydro-8H-imidazo[1,5-a]pyrazin-7-yl}-2′-phenyl-acetamide]	8 nM	259 nM	–	–	–
CCOc1nc(C(F)(F)F)c2n1CCN([C@@H](C(=O)NC)c1ccccc1)[C@H]2CCc1ccc(C(F)(F)F)cc1 [Example 21, (R)-2′-{3-ethoxy-1-trifluoromethyl-(S)-8-[2-(4-trifluoromethyl-phenyl)-ethyl]-5,6-dihydro-8H-imidazo[1,5-a]pyrazin-7-yl}-N-methyl-2′-phenyl-acetamide]	–	–	63 nM	3540 nM	–
CCc1nc(S(C)(=O)=O)c2n1CCN([C@@H](C(=O)NC)c1ccccc1)[C@H]2CCc1ccc(C(F)(F)F)cc1 [Example 23, (R)-2′-{3-ethyl-1-methanesulfonyl-(S)-8-[2-(4-trifluoromethyl-phenyl)-ethyl]-5,6-dihydro-8H-imidazo[1,5-a]pyrazin-7-yl}-N-methyl-2′-phenyl-acetamide]	–	–	25 nM	1680 nM	–

Now from value to molecule, other results behind:

IC50 [4, 6]	IC50 [5, 7]	IC50 [4, 8]	IC50 [5, 9]	SMILES	also measured
11 nM	43 nM	–	–	CNC(=O)[C@@H](c1ccccc1)N1CCn2c(C3CC3)nc(Cl)c2[C@@H]1CCc1ccc(Cl)c(F)c1 [Example 3, (R)-2′-{1-chloro-(S)-8-[2-(4-chloro-3-fluoro-phenyl)-ethyl]-3-cyclopropyl-5,6-dihydro-8H-imidazo[1,5-a]pyrazin-7-yl}-N-methyl-2′-phenyl-acetamide]	–
21 nM	56 nM	–	–	CNC(=O)[C@@H](c1ccccc1)N1CCn2c(SC)nc(Cl)c2[C@@H]1CCc1ccc(C(F)(F)F)c(F)c1F [Example 8, (R)-2′-{1-chloro-(8)-8-[2-(2,3-difluoro-4-trifluoromethyl-phenyl)-ethyl]-3-methylsulfanyl-5,6-dihydro-8H-imidazo[1,5-a]pyrazin-7-yl}-N-methyl-2′-phenyl-acetamide]	–
–	–	8 nM	384 nM	CCc1nc(C2CC2)n2c1C(CCc1ccc(C(F)(F)F)c(F)c1)N(C(C(=O)NC)c1ccccc1)CC2 [Example 17, (R)-2′-{3-cyclopropyl-1-ethyl-(8)-8-[2-(3-fluoro-4-trifluoromethyl-phenyl)-ethyl]-5,6-dihydro-8H-imidazo[1,5-a]pyrazin-7-yl}-N-methyl-2′-phenyl-acetamide]	–
–	–	7 nM	91 nM	CNC(=O)[C@@H](c1ccccc1)N1CCn2c(C3CC3)nc(Cl)c2[C@@H]1CCc1cccc(C(F)(F)F)c1 [Example 26, (R)-2′-{1-chloro-3-cyclopropyl-(S)-8-[2-(3-trifluoromethyl-phenyl)-ethyl]-5,6-dihydro-8H-imidazo[1,5-a]pyrazin-7-yl}-N-methyl-2′-phenyl-acetamide]	–
–	–	13 nM	505 nM	CCc1nc(C(F)(F)F)n2c1[C@H](CCc1ccc(C(F)(F)F)cc1)N([C@@H](C(=O)NC)c1ccccc1)CC2 [Example 28, (R)-2′-{1-ethyl-3-trifluoromethyl-(8)-8-[2-(4-trifluoromethyl-phenyl)-ethyl]-5,6-dihydro-8H-imidazo[1,5-a]pyrazin-7-yl}-N-methyl-2′-phenyl-acetamide]	–

— US20110105514A1, “5,6,7,8-TETRAHYDRO-IMIDAZO[1,5-A]PYRAZINE COMPOUNDS” (priority 2008, published 2011)
